Laboratory results reported in patent publication US20250134878A1, “COMBINATION OF CHEK1 INHIBITOR AND TOP1 INHIBITOR FOR TREATING COLORECTAL CANCER” (Genome Research Limited, priority 2022, published 2025).
Values joined by “and” are separate entries in the source; they are usually repeats but may differ in a detail not shown here. Equal values may be shown once. Read-outs that look alike come from different tables or passages of the source.

Legend:
[1] = system: colon cancer cell lines (CL-11, SNU-81 and SW837); test: 7x7 matrix combination screen with SN-38, CellTiter-Glo 72 h, Bliss window and HSA window; format: cell-based; conditions: MSS and KRAS/TP53 double mutant cell lines
Method: Viability was measured after 72 h of drug treatment using CellTiter-Glo reagent. Single-agent and combination viability measurements were fitted per cell line and multiple parameters derived including single agent values and a range of synergy scores. […] The “Bliss window” was reported as the highest mean Bliss excess value measured across the 25 possible 3×3 submatrices, or ‘windows’, across the 7×7 dose matrix. […] The “HSA window” was reported as the highest mean HSA excess value measured across the 25 possible 3×3 submatrices, or ‘windows’, across the 7×7 dose matrix.

[2] = Phase 1 clinical trials; cited from earlier work
[3] = system: HT-29 cells; conditions: cited from earlier work
[4] = system: LoVo cells; conditions: cited from earlier work
[5] = system: colon (n=45) cancer cell lines; test: anchored 2x7 combination screen, viability by CellTiter-Glo after 72 h, synergy over Bliss
Method: To screen efficiently, the inventors used a 2×7 concentration matrix, or “anchored” approach. The inventors screened each anchor compound at two optimised concentrations and a discontinuous 1,000-fold (7-point) dose-response curve of the library compound. Viability was read out after 72 h of drug treatment using CellTiter-Glo and drug responses for single agent and combination responses were fitted.
The synergy and activity rate also subset to MSS (n=30) and MSI (n=15), or KRAS mut (n=24) and KRAS wt (n=21) cell lines.
Activity in MSI (n=15) and MSS (n=30) cell lines was compared (FIG. 1a). KRAS mutant (n=24) cell lines were investigated (n=8, TP53 wild type; n=16 TP53 mutant) (FIG. 1b). […] Plotted are averaged combination responses. Box and whisker plots show the median and interquartile range. A two-sided Welch's t-test was performed (*=p≤0.05, **=p≤0.01, ***=p≤0.001, ****=p≤0.0001).
Viability was read out after 72 h of drug treatment using CellTiter-Glo and drug responses for single agent and combination responses were fitted.

[6] = molecular target: ataxia telangiectasia and Rad3 related (ATR) kinase (Homo sapiens, UniProt Q13535); conditions: cited from earlier work
ataxia telangiectasia and Rad3 related (ATR) kinase, sequence (Q13535 whole entry): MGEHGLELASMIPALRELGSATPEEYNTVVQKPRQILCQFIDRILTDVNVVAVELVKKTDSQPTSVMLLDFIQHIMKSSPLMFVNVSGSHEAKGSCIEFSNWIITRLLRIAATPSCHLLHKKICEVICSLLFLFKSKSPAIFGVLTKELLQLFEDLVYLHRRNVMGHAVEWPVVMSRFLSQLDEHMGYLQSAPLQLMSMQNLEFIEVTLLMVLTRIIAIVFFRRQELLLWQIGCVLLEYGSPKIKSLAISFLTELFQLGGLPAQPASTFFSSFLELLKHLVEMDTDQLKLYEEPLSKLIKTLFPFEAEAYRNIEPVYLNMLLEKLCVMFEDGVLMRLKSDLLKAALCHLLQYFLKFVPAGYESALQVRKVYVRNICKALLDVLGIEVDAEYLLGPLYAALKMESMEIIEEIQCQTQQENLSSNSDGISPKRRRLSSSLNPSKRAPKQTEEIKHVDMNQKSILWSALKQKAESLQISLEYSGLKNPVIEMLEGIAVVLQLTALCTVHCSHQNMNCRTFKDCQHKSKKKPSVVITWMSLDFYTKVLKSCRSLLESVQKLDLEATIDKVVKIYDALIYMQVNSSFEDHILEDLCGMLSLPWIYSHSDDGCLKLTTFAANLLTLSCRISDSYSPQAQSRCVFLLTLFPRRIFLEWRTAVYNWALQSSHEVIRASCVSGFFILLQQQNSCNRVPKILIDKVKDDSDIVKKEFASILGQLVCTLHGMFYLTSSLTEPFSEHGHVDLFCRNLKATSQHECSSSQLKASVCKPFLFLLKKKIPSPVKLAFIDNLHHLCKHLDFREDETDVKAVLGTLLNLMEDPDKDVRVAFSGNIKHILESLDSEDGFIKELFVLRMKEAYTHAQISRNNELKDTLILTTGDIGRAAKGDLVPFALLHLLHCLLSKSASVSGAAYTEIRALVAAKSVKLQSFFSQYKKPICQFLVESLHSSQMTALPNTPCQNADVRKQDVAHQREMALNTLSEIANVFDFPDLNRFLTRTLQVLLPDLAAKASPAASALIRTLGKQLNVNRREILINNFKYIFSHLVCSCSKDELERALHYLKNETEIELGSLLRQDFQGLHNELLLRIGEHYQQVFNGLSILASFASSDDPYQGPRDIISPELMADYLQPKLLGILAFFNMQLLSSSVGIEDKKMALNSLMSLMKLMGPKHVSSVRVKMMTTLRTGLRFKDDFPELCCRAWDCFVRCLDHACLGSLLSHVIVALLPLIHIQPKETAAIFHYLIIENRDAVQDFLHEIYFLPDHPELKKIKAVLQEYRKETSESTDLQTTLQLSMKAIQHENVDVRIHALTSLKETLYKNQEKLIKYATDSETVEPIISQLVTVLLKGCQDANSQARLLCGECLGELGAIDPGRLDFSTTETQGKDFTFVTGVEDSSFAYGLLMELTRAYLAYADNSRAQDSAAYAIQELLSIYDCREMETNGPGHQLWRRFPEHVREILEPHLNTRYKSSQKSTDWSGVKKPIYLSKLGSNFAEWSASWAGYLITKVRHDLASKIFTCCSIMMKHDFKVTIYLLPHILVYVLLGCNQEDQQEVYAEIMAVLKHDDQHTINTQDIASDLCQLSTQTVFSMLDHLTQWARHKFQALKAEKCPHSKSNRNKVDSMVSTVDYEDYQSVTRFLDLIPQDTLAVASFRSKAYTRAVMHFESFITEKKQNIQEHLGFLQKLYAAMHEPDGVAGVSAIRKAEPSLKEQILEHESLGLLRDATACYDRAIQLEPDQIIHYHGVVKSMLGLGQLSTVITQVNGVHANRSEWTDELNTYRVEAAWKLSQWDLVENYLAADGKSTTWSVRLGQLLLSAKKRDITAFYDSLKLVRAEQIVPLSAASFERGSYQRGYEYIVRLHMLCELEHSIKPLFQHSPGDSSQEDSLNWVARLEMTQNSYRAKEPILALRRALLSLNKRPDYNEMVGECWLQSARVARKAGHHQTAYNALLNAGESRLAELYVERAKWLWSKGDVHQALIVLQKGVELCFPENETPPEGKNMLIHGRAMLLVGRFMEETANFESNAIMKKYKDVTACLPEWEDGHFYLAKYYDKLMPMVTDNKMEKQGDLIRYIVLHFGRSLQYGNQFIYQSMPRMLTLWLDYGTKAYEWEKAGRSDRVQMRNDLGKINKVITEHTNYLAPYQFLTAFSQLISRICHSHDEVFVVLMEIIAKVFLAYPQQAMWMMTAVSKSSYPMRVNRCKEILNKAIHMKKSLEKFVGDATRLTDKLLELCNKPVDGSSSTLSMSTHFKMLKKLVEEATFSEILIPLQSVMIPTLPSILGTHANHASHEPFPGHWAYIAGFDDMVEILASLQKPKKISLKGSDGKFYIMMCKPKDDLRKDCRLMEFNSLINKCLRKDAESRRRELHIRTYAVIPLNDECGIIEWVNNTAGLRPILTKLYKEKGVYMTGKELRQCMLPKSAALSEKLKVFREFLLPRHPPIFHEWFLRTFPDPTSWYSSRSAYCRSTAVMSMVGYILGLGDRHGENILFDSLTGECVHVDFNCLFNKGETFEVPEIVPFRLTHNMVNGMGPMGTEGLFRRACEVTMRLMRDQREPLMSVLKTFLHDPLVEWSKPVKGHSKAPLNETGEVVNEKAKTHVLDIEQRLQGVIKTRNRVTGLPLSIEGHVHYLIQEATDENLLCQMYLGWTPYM
ataxia telangiectasia and Rad3 related (ATR) kinase, sequence (Q8WXE1 whole entry partner): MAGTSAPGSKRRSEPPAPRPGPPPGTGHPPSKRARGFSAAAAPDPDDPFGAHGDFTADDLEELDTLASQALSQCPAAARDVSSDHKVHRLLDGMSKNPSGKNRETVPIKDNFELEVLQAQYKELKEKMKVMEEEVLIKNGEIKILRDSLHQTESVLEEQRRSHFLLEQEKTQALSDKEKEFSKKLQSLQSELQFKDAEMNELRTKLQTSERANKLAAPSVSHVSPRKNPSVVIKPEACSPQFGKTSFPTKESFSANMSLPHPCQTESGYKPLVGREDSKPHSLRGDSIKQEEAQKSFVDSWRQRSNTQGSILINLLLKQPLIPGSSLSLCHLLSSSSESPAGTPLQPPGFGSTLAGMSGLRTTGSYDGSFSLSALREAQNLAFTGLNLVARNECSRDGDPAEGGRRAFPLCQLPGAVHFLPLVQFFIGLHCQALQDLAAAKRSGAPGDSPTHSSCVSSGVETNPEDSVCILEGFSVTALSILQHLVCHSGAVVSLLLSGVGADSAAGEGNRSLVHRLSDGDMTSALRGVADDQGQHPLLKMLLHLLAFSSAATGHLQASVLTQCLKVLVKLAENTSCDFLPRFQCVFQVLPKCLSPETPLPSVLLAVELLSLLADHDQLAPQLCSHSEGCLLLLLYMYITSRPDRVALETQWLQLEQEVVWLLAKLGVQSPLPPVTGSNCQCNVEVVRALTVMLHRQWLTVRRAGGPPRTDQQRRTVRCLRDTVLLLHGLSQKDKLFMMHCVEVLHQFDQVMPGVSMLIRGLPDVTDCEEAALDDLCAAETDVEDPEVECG

[7] = system: ATR-driven phosphorylated CHEK1 (P-CHEK1) phosphorylation; conditions: cell-free assay; cited from earlier work
[8] = system: SW837 cells; test: SN-38 dose response after siRNA transfection, viability (CTG); format: cell-based; conditions: for IC50: SN-38 added after 30 h, viability 72 h later
Method: (§1) For siRNA experiments, SW837 and SNU-81 cells (8,000 and 16,000 cells per well, respectively) were reverse transfected with siRNAs of a non-targeting pool as negative control (siNT; Dharmacon, D-001810-10-5), polo-like kinase 1 (PLK1) pool as positive control (Dharmacon, L-003290-00-0010), CHEK1 pool (Dharmacon, L-003255-00-0005) or four individual CHEK1 siRNAs (LQ-003255-00-0005), and CHEK2 pool (Dharmacon, L-003256-00-0005) using lipofectamine RNAiMax (Thermofisher). After 30 h, 0.025 µM or a dose range of 0.001-9 µM SN-38 or DMSO were added and viability was measured 72 h later with CTG. Signal was normalised to siNT+DMSO controls. […] FIGS. 4a and 4c confirm that the effect of the TOP1+CHEK combination is primarily mediated through inhibition of CHEK1.
(§2) SW837 and SNU-81 cells (8,000 and 16,000 cells per well, respectively) were reverse transfected with siRNAs of a non-targeting pool as negative control (siNT; Dharmacon, D-001810-10-5), CHEK1 pool (Dharmacon, L-003255-00-0005) or CHEK2 pool (Dharmacon, L-003256-00-0005) using lipofectamine RNAiMax (Thermofisher). After 30 h, a dose range of 0.001-9 µM SN-38 or DMSO were added and viability was measured 72 h later with CTG. Signal was normalised to siNT+DMSO controls. Mean±SD of three independent replicates.

[9] = system: SNU-81 cells; test: as above; format: cell-based; conditions: for IC50: SN-38 added after 30 h, viability 72 h later
Method: as §1, §2

[10] = system: SW620, SW837, SNU-81 or LS-1034 cells; test: CHEK specificity: camptothecin anchor plus CHEK inhibitor libraries, CellTiter-Glo viability after 96 h; format: cell-based; conditions: in combination with camptothecin (anchor, 0.025 µM), 4 cell lines
Method: After 96 h of drug treatment viability was measured with CellTiter-Glo® 2.0 (CTG; Promega). Drug response curves were fitted and combination response metrics ΔEmax and ΔIC50 calculated by comparing the observed combination response with the expected (Bliss) combination response. The higher the ΔEmax and ΔIC50, the stronger the combination response. SW620, SW837, SNU-81 and LS-1034 are all MSS and KRAS-TP53 double mutant colon cancer cell lines.

[11] = molecular target: T1, CHEK1 (Homo sapiens, UniProt O14757); conditions: assay format not stated; read-out: IC50 (CHEK1 inhibitor); cited from earlier work
T1 sequence (O14757 1-476): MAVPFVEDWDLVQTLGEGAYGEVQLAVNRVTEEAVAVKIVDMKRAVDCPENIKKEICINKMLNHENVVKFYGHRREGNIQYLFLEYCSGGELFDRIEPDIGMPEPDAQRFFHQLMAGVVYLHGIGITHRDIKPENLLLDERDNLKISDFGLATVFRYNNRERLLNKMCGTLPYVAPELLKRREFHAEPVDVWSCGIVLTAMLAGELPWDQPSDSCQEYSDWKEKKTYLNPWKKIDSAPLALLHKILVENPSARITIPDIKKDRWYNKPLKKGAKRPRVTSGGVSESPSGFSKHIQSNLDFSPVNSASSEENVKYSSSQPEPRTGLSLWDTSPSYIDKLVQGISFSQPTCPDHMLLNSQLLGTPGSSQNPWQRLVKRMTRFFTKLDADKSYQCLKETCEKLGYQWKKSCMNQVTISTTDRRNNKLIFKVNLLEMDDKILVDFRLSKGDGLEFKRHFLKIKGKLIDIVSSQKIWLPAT

In the case of `C[C@H](CN(C)C)Oc1nc(Nc2cc3cccc(Cl)c3cn2)cnc1C#N` [SAR-020106, 5-(8-chloroisoquinolin-3-ylamino)-3-((R)-1-(dimethylamino)propan-2-yloxy) pyrazine-2-carbonitrile], the “synergy (Bliss window and HSA window) in combination with SN-38” value (“synergy (Bliss window and HSA window)” below) [1] is reported as “high”.
For `Cn1cc(-c2cnn3c(N)c(Br)c([C@@H]4CCCNC4)nc23)cn1` [MK-8776, 6-bromo-3-(1-methyl-1H-pyrazol-4-yl)-5-[(3R)-piperidin-3-yl]pyrazolo[1,5-a]pyrimidin-7-amine], the “synergy (Bliss window and HSA window)” value [1] was “high”.
For `Cc1cnc(NC(=O)Nc2cc(Br)c(C)cc2OC[C@@H]2CNCCO2)cn1` [rabusertib, 1-[5-bromo-4-methyl-2-[[(2S)-morpholin-2-yl]methoxy]phenyl]-3-(5-methylpyrazin-2-yl) urea], the safety profile [2] is listed as “acceptable safety profile” and the “synergy (Bliss window and HSA window)” value [1] is listed as “high”.
In the case of `CCc1c2c(nc3ccc(OC(=O)N4CCC(N5CCCCC5)CC4)cc13)-c1cc3c(c(=O)n1C2)COC(=O)[C@]3(O)CC` [Irinotecan, [(19S)-10,19-diethyl-19-hydroxy-14,18-dioxo-17-oxa-3,13-diazapentacyclo[11.8.0.0^2.11.0^4.9.0^15,20]henicosa-1 (21),2,4(9),5,7,10,15(20)-heptaen-7-yl] 4-(1-piperidyl) piperidine-1-carboxylate], the IC50 [3] is given as 5170 nM and the IC50 [4] is given as 15800 nM.
For `NC(=O)Nc1cc(-c2cccc(F)c2)sc1C(=O)N[C@H]1CCCNC1` [AZD7762, (S)-5-(3-Fluorophenyl)-N-(piperidin-3-yl)-3-ureidothiophene-2-carboxamide], the “synergy and activity rate in combination with 5-FU (DNA antimetab.)” value ([5]; AZD7762 = Anchor) was 26%, the “synergy and activity rate in combination with Oxaliplatin (DNA alkyl.)” value ([5]; AZD7762 = Anchor) was 0% and the “synergy and activity rate in combination with Vinorelbine (Microtub.)” value ([5]; AZD7762 = Anchor) was 0%. For the same compound, the “synergy and activity rate in combination with 5-FU (DNA antimetab.)” value ([5]; AZD7762 = Library) was 28%, the “synergy and activity rate in combination with Oxaliplatin (DNA alkyl.)” value ([5]; AZD7762 = Library) was 2% and the “synergy and activity rate in combination with Vinorelbine (Microtub.)” value ([5]; AZD7762 = Library) was 4%.
For `Nc1nn2cc(F)cnc2c1C(=O)Nc1cncc(F)c1N1CCC(C(=O)N2CCN(C3COC3)CC2)CC1` [VX-803, 2-amino-6-fluoro-N-[5-fluoro-4-[4-[4-(oxetan-3-yl)piperazine-1-carbonyl]-1-piperidyl]-3-pyridyl]pyrazolo[1,5-a]pyrimidine-3-carboxamide], the “Ki ATR kinase” value [6] is listed as under 0.15 nM and the IC50 [7] is listed as 8 nM.
For `COc1cccc(OCCCN)c1-c1cc(Nc2cnc(C#N)cn2)n[nH]1` [Prexasertib, 5-[[5-[2-(3-aminopropoxy)-6-methoxyphenyl]-1H-pyrazol-3-yl]amino]pyrazine-2-carbonitrile], the “synergy (Bliss window and HSA window)” value [1] was “high”.
`CCc1c2c(nc3ccc(O)cc13)-c1cc3c(c(=O)n1C2)COC(=O)[C@]3(O)CC` [SN-38, (19S)-10,19-diethyl-7,19-dihydroxy-17-oxa-3,13-diazapentacyclo[11.8.0.0^2.11.0^4.9.0^15,20]henicosa-1(21),2,4(9),5,7,10,15(20)-heptaene-14,18-dione] showed an IC50 ([8]; CHEK1 siRNA pool, read-out: IC50 in SW837, siCHEK1) of 0.7 nM, an IC50 ([8]; CHEK2 siRNA pool, read-out: IC50 in SW837, siCHEK2) of 67 nM and an IC50 ([8]; Homo sapiens, SW837, CHEK1 siRNA pool, read-out: IC50 in SW837, siCHEK1) of 0.69 nM. For the same compound, the IC50 ([8]; Homo sapiens, SW837, CHEK2 siRNA pool, read-out: IC50 in SW837, siCHEK2) was 66.6 nM, the IC50 ([8]; Homo sapiens, SW837, non-targeting siRNA pool, read-out: IC50 in SW837, siNT) was 84.4 nM and the “shift in IC50 of SN-38 on addition of siCHEK1” value ([8]; SW837, siCHEK1 vs siNT) was 120 fold. For the same compound, the IC50 ([8]; non-targeting siRNA pool, read-out: IC50 in SW837, siNT) was 84 nM, the IC50 ([9]; CHEK1 siRNA pool, read-out: IC50 in SNU-81, siCHEK1) was 84.4 nM and 84 nM and the IC50 ([9]; CHEK2 siRNA pool, read-out: IC50 in SNU-81, siCHEK2) was 715 nM. For the same compound, the “shift in IC50 of SN-38 on addition of siCHEK1” value ([9]; SNU-81, siCHEK1 vs siNT) was 7.2 fold and the IC50 ([9]; non-targeting siRNA pool, read-out: IC50 in SNU-81, siNT) was 611 nM.
For `COc1cc2nc(-c3cc(F)ccc3O)nc(N[C@@H]3CNC[C@H]3C(C)(C)O)c2cc1OC` [CCT241533], the “median ΔEmax (shift in efficacy over Bliss)” value [10] was “did not”.
In the case of `N[C@@H]1CCCN(c2c(Br)cnc3[nH]cc(NC(=O)C4CC4)c23)C1` [GDC-0575, N-[4-[(3R)-3-amino-1-piperidyl]-5-bromo-1H-pyrrolo[2,3-b]pyridin-3-yl]cyclopropanecarboxamide], the IC50 [11] is listed as 1.2 nM.
